One series deals with T1, human GIP receptor (Homo sapiens, UniProt P48546).
T1 construct: expressed in transfected cells; host or cells: Chinese hamster lung (CHL) fibroblasts, stably transfected
T1 sequence (P48546 22-466): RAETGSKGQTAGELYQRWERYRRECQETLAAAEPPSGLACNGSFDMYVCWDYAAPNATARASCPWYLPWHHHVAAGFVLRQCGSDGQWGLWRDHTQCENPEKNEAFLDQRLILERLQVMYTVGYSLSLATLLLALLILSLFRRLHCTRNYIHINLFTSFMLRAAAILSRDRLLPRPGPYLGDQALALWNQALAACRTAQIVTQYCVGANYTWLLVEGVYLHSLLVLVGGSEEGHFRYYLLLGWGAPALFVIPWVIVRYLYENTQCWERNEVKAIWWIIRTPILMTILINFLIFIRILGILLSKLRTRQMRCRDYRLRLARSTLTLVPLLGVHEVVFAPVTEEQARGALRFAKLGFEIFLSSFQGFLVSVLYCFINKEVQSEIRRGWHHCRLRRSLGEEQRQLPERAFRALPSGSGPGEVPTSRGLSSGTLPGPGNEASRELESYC
Nature of the series: Intracellular cyclic AMP production in GIP-receptor transfected CHL fibroblasts. The series is classed as cell-based. The method, then:
In vitro biological activity. […] In brief, CHL cells were seeded into 12-well plates (Nünc, Roskilde, Denmark) at a density of 10^5 cells per well and allowed to grow for 48 hours before being loaded with tritiated adenine (2 μCi; TRK311; Amersham, Buckinghamshire, UK). The cells were then incubated at 37° C. for 6 hours in 1 ml DMEM supplemented with 0.5% (w/v) BSA and subsequently washed twice with HBS buffer (pH 7.4). […] The medium was subsequently removed and the cells lysed with 1 ml of 5% TCA containing 0.1 mmol/l unlabelled cyclic AMP and 0.1 mmol/l unlabelled ATP.

The target in another series is T2, DPP IV (Sus scrofa, UniProt P22411).
T2 construct: purchased Sigma (Poole, Dorset, UK)
T2 sequence (P22411 whole entry): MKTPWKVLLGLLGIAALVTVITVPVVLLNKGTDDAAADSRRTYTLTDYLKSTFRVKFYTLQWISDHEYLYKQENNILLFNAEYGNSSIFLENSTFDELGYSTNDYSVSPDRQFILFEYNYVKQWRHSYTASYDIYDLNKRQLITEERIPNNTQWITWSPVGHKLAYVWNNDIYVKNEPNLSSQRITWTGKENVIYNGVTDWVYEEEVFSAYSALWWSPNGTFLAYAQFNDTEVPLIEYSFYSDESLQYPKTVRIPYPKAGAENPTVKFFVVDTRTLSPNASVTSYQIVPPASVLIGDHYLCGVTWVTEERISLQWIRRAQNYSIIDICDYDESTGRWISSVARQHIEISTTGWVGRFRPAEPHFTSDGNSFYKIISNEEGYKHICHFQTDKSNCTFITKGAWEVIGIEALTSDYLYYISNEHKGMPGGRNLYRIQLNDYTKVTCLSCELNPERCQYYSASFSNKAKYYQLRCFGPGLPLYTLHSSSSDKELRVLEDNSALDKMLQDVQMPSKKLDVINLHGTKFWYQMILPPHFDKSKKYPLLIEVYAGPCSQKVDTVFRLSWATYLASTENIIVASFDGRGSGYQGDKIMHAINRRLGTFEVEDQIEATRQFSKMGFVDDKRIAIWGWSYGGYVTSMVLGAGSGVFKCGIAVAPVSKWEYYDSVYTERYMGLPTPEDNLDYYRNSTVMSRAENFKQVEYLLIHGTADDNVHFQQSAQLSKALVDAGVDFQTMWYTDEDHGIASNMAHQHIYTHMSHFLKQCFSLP
Nature of the series: DPP IV degradation studies of fatty acid derivatised GIP analogues. The series is classed as in vitro ADME, porcine. Conditions: pig, isolated enzyme dpp iv, pH 7.8, incubation with DPP IV, read-out: % Intact peptide remaining after time (hours). The method, then:
DPP IV degradation studies. GIP and fatty acid derivatised GIP analogues were incubated at 37° C. with purified porcine dipeptidylpeptidase IV (5 mU in 50 mmol/l triethanolamine-HCl; pH 7.8) for 0, 2, 4, 8 and 24 hours (final peptide concentration 2 mmol/l). The reactions were subsequently terminated by addition of 10% (v/v) TFA/water and the reaction products separated using HPLC. […] HPLC peak area data were used to calculate % intact peptide remaining throughout the incubation.

Series [1] concerns obese diabetic ob/ob mice. Nature of the series: Chronic (11 days, s.c.) (Pro3)GIP administration in obese diabetic ob/ob mice. The series is classed as in vivo, mouse. The method, then:
Effects of chronic (Pro^3)GIP administration on plasma glucose, insulin and glycated HbA1c in obese diabetic ob/ob mice and normal mice. Obese diabetic ob/ob mice and normal control mice aged 8-12 weeks were randomly divided into groups which received once daily subcutaneous injections (17:00 h) of either saline (0.9% w/v NaCl) or (Pro^3)GIP (25 nmol/kg body weight in saline). After 11 days, treatment was ceased. Food intake and body weight were recorded daily. Blood samples were collected from the cut tip of the tail of conscious mice into chilled fluoride/heparin coated glucose microcentrifuge tubes (Sarstedt, Numbrecht, Germany). Blood samples were immediately centrifuged using a Beckman microcentrifuge (Beckman Instruments, UK) for 30 seconds at 13000 g prior to glucose, insulin and HbA1c determinations.
Effects of chronic treatment with (Pro^3)GIP on glucose tolerance in ob/ob mice and normal mice. Plasma glucose and insulin concentrations were measured following intraperitoneal administration of glucose (18 mmol/kg body weight) in ob/ob and normal mice treated with either saline (0.9% w/v NaCl) or (Pro^3)GIP (25 nmol/kg body weight/day) for 11 days. This test was repeated 9 days after cessation of chronic (Pro^3)GIP treatment. Blood samples were collected from the cut tip of the tail of conscious mice into chilled fluoride/heparin microcentrifuge tubes (Sarstedt, Numbrecht, Germany) immediately prior to injection and at 15, 30 and 60 minutes post injection. Blood samples were immediately centrifuged using a Beckman microcentrifuge (Beckman Instruments, UK) for 30 seconds at 13000 g and stored at −20° prior to glucose and insulin determinations.
Effects of chronic treatment with (Pro^3)GIP on the glucose lowering effects of exogenous insulin in ob/ob mice. The glucose lowering effects of insulin were evaluated by measuring plasma glucose response in 11-day saline (0.9% w/v NaCl) and (Pro^3)GIP (25 nmol/kg body weight/day) treated ob/ob mice following acute intraperitoneal administration of insulin (50 U/kg bodyweight). Blood samples were collected from the cut tip of the tail of conscious mice into chilled fluoride/heparin microcentrifuge tubes (Sarstedt, Numbrecht, Germany) immediately prior to injection and at 30 and 60 minutes post injection. Blood samples were immediately centrifuged using a Beckman microcentrifuge (Beckman Instruments, UK) for 30 seconds at 13000 g and stored at −20° prior to glucose determination.
Effects of chronic treatment with (Pro^3)GIP on pancreatic insulin content and associated islet hypertrophy in ob/ob mice. Pancreatic tissue was excised from non-fasted ob/ob mice after 11 days treatment with either saline (0.9% w/v NaCl) or (Pro^3)GIP (25 nmol/kg body weight/day). Pancreatic samples were individually wrapped in aluminium foil and snap frozen in liquid nitrogen. Individual excised pancreatic samples were then either embedded, sectioned and immunohistochemically stained for insulin or permeabilised for determination of pancreatic insulin content.
Determination of HbA1c, plasma glucose and insulin concentrations. HbA1c was measured in whole blood by ion-exchange high-performance liquid chromatography using the Menari HA-8140 kit (BIOMEN, Berkshire, UK). Plasma glucose was assayed by an automated glucose oxidase procedure using a Beckman Glucose Analyzer II (Stevens, J. F., 1971, Clinica Chemica Acta 32:199-201) and plasma insulin was determined by RIA (Flatt, P. R. et al., 1981, Diabetologia 20:573-577). Incremental areas under plasma glucose and insulin curves (AUC) were calculated using a computer generated program (CAREA) employing the trapezoidal rule (Burington, R. S., 1973, Handbook of Mathematical Tables and Formulae, New York, McGraw Hill) with baseline subtraction.

Where [2] appears, read: 25 nmol/kg/day s.c., 11 days, vs saline.

No end group written: not given here.

The EC50 is the concentration at which the effect is half-maximal. A higher EC50 goes with lower potency in that assay. The term share remaining denotes what is left of the initial amount, in per cent. In the case of `CCCCCCCCCCCCCCCC(=O)NCCCC[C@H](NC(=O)[C@H](Cc1c[nH]c2ccccc12)NC(=O)[C@H](CC(=O)O)NC(=O)[C@H](CC(N)=O)NC(=O)[C@H](CCCCN)NC(=O)[C@H](CCCCN)NC(=O)CNC(=O)[C@H](CCCCN)NC(=O)[C@H](CCC(N)=O)NC(=O)[C@H](C)NC(=O)[C@H](CC(C)C)NC(=O)[C@H](CC(C)C)NC(=O)[C@H](Cc1c[nH]c2ccccc12)NC(=O)[C@H](CC(N)=O)NC(=O)[C@@H](NC(=O)[C@H](Cc1ccccc1)NC(=O)[C@H](CC(=O)O)NC(=O)[C@H](CCC(N)=O)NC(=O)[C@H](CCC(N)=O)NC(=O)[C@H](Cc1c[nH]cn1)NC(=O)[C@@H](NC(=O)[C@H](CCCCN)NC(=O)[C@H](CC(=O)O)NC(=O)[C@H](CCSC)NC(=O)[C@H](C)NC(=O)[C@@H](NC(=O)[C@H](CO)NC(=O)[C@H](Cc1ccc(O)cc1)NC(=O)[C@H](CC(=O)O)NC(=O)[C@H](CO)NC(=O)[C@@H](NC(=O)[C@H](Cc1ccccc1)NC(=O)[C@@H](NC(=O)CNC(=O)[C@H](CCC(=O)O)NC(=O)[C@H](C)NC(=O)[C@H](Cc1ccc(O)cc1)NC(C)=O)[C@@H](C)O)[C@@H](C)CC)[C@@H](C)CC)[C@@H](C)CC)C(C)C)C(=O)N[C@@H](Cc1c[nH]cn1)C(=O)N[C@@H](CC(N)=O)C(=O)N[C@H](C(=O)N[C@H](C(=O)N[C@@H](CCC(N)=O)C(=O)O)[C@@H](C)O)[C@@H](C)CC` [N-AcGIP(LysPAL^37)], the midpoint of the response at human GIP receptor, the EC50, lay at 0.013 µM. In addition, the amount remaining at 2 h, 2 mmol/l on DPP IV (2 h) came out at 100%. In addition, the amount remaining at 8 h, 2 mmol/l on DPP IV (8 h) is 100%. The fraction remaining at 24 h, 2 mmol/l on DPP IV (24 h) is 100%.

As for “YAPGTFISDYSIAMDKIHQQDFVNWLLAQKGKKNDWKHNITQ [(Pro^3)GIP]”, in series [1] (25 nmol/kg/day s.c., 11 days), the HbA1c entry is on record as “significant decreases”, the islet hypertrophy entry is “partial correction” and the pancreatic insulin stores result is “significant decreases”. Moreover, in series [1] (setting [2]), the plasma glucose concentration result is “decreases” and the plasma insulin concentration result was “decreases”. The “persistence of beneficial effects after cessation” value in series [1] (9 days after cessation of treatment) was “reversed 9 days after cessation of treatment”. Moreover, the food intake entry in series [1] (11 days) is listed as “without any change”. Moreover, the “decrease in body weight” value in series [1] (11 days, did not achieve significance) is listed as about 7%. Moreover, in series [1] (after 11 days treatment), the “circulating insulin during glucose tolerance test” value is listed as “without change”. For the same compound, in series [1] (after 11 days treatment, i.p. glucose 18 mmol/kg), the glucose tolerance result is on record as “substantially improved”. The insulin sensitivity entry in series [1] (after 11 days, exogenous insulin 50 U/kg i.p.) is “significant improvement of insulin sensitivity”.

For the origin of these results see US7875587B2, “Peptide analogues of GIP for treatment of diabetes, insulin resistance and obesity” (UUTECH Limited, priority 2004, dated 2011).
